Where a SMILES comes first, the peptide text is derived from it. The star is where a group is joined. Cbz = O=C(OCc1ccccc1)*
Experiments:
Type in all cases: cell-based, human
NK-92 cells [1] = assay: Cytotoxicity of MAPK inhibitor-treated NK-92 cells against K562; conditions: NK-92 cells treated with 10 mM inhibitor; compared with ERK and p38 inhibitors
Pyk2 [2] = assay: GST pull down of GST-SOCS2 and Flag-Pyk2 in 293T cells; conditions: MG132-containing medium vs general culture medium
Method: The GST expression vector and pFlag-Pyk2, or pGST-SOCS2 and pFlag-Pyk2 were cotransformed into 293T cells using Lipofectamin 2000 (Invitrogen, U.S.A.). After 4 hr of transformation, the medium was replaced to a general culture medium or MG132 (proteasome inhibitor)-containing medium, and […], cells were lysed. The each cell lysate was allowed to react with glutathione-sepharose bead (GE Healthcare, U.S.A.) at 4° C. for 4 hr. Western blot analysis was performed by the same method in Example <2-1> using anti-Flag primary antibody (Santa Cruz, U.S.A.) or anti-GST primary antibody (Santa Cruz, U.S.A.).

Pyk2 [3] = assay: Immunoprecipitation of Flag-Pyk2, GST-SOCS2 and HA-ubiquitin in 293T cells; conditions: MG132-containing medium vs general culture medium
Method: In order to determine whether SOCS2 inhibits the proteasome-mediated Pyk2 degradation or not, the following experiment was carried out. First of all, pGST-SOCS2, pFlag-Pyk2, and HA-ubiquitin (AddGene) were cotransformed into 293T cells using Lipofectamin 2000. After 4 hr of transformation, the medium was replaced to a general culture medium or MG132 (proteasome inhibitor)-containing medium, and 24 hr later, cells were lysed. The each cell lysate was allowed to react with anti-Flag antibody or anti-GST antibody. The antigen-antibody complexes were precipitated by incubation at 4° C. for 1 day with G-protein-conjugated agarose (Roshe, Switzerland). The immunoprecipitated complexes were washed with 1×PBS. Western blot analysis was performed by the same method in Example <2-1> using anti-GST antibody, anti-Flag antibody, or anti-HA antibody (Santa Cruz, U.S.A.).

NK-92 cells [4] = assay: socs2 mRNA expression by real time PCR in cytokine-treated NK-92 cells
Method: NK cell differentiation is mediated by IL-15 (Interleukin 15) cytokine. To determine whether the SOCS2 upregulation following NK cell differentiation was induced by IL-15, the present inventors experimented on the IL-15-induced SOCS2 upregulation in mature NK cells. The experimented NK-92 human NK cells and primary NK cells live and proliferate in the condition where IL-15 exists. Accordingly, to measure the effect of IL-15, deprivation of IL-15 was carried out by culturing cells in a medium without IL-15 for 24 hr prior to IL-15 treatment, and then the medium was replaced with a medium containing 10 ng/mL IL-15 to make a cell differentiation condition. Real time PCR was carried out with NK-92 cells at 4, 8, 12, and 16th hr after the replacement of the medium using the same method in Example <3-1-1> to measure the amount of socs2 mRNA expression.
Specifically, each NK cell was collected and total RNA was extracted using Trizol Reagent (Invitrogen, U.S.A.). Then, 1 μg of the RNA was reverse transcribed into cDNA using reverse transcriptase superscript II (Invitrogen). […] Concurrently, using GAPDH (Glyceraldehyde-3-phosphate dehydrogenase) as a quantitative control, real time PCR was performed with GAPDH primer pair of Table 2. […]

primary NK cells [5] = assay: socs1, socs2, socs3 mRNA expression by real time PCR in IL-15-stimulated primary NK cells; conditions: IL-15 stimulation after deprivation
Method: Deprivation and IL-15 stimulation was carried out with primary NK cells using the same method in Example <2-2>. The amounts of mRNA expression of socs1, socs2 and socs3 were measured by real time PCR. Primers in Table 1 and Table 3 were used.
Specifically, each NK cell was collected and total RNA was extracted using Trizol Reagent (Invitrogen, U.S.A.). Then, 1 μg of the RNA was reverse transcribed into cDNA using reverse transcriptase superscript II (Invitrogen). Using the cDNA as template, real time PCR was performed with the 2×SYBR Premix Ex Taq™ (TaKaRa, Japan) and SOCS2 primer pairs of Table 2 (Exicycler version 2, Bioneer, Republic of Korea). Concurrently, using GAPDH (Glyceraldehyde-3-phosphate dehydrogenase) as a quantitative control, real time PCR was performed with GAPDH primer pair of Table 2. The PCR condition was as follows: denaturation of 10 min at 95° C.; 40 cycles of […], 30 sec at 60° C., and 1 min at 72° C.; and extension of 8 min at 72° C. followed by cooling to room temperature. After analyzing real time PCR data by the comparative CT (2^−ΔΔCt) method which normalizes the amount of socs2 expression of each sample to the amount of GAPDH expression, the relative amount of SOCS2 expression in differentiated NK cells at each day to the amount of socs2 expression in primary NK cells was shown as a graph in FIG. 1(a).

[6] = system: NK-92 cells and primary NK cells; assay: SOCS2 protein expression by Western blot after IL-15 stimulation; conditions: IL-15 stimulation after deprivation
Method: Each NK cell was lysed in RIPA buffer (50 mM Tris-HCl, pH 7.4, 150 mM NaCl, 0.25% SDS, 1% NP-40, 1 mM EDTA, a protease inhibitor cocktail, and a phosphate inhibitor cocktail) and the concentration of protein present in the whole cell lysate was determined using BCA Protein Assay Kit (Pierce, U.S.A.). 30 μg of each protein sample was resolved using 10 or 12% SDS-PAGE gel and transferred to an Immobilon-P membrane (Millipore Corporation, U.S.A.). The membrane was blocked with 5% skim milk and treated with anti-SOCS2 antibody (Santa Cruz, U.S.A.) as a primary antibody for 1 day at 4° C. HRP-conjugated anti-rabbit secondary antibody (Santa Cruz, U.S.A.) was attached to the primary antibody-treated membrane, and then, Immobilon Western Chemiluminescent HRP Substrate (Milipore Corporation) was added thereto. The membrane was exposed to X-ray film. As quantitative control, the amount of expression of GAPDH was examined using anti-GAPDH primary antibody (Santa Cruz, U.S.A.) by the above method. […]

NK-92 cells [7] = assay: Western blot of SOCS2 and p-Pyk2Tyr402 after IL-15 in NK-92 cells; conditions: IL-15 for 6, 12 or 24 hr
Method: (§1) Each NK cell was lysed in RIPA buffer (50 mM Tris-HCl, pH 7.4, 150 mM NaCl, 0.25% SDS, 1% NP-40, 1 mM EDTA, a protease inhibitor cocktail, and a phosphate inhibitor cocktail) and the concentration of protein present in the whole cell lysate was determined using BCA Protein Assay Kit (Pierce, U.S.A.). 30 μg of each protein sample was resolved using 10 or 12% SDS-PAGE gel and transferred to an Immobilon-P membrane (Millipore Corporation, U.S.A.). The membrane was blocked with 5% skim milk and treated with anti-SOCS2 antibody (Santa Cruz, U.S.A.) as a primary antibody for 1 day at 4° C. HRP-conjugated anti-rabbit secondary antibody (Santa Cruz, U.S.A.) was attached to the primary antibody-treated membrane, and then, Immobilon Western Chemiluminescent HRP Substrate (Milipore Corporation) was added thereto. The membrane was exposed to X-ray film. As quantitative control, the amount of expression of GAPDH was examined using anti-GAPDH primary antibody (Santa Cruz, U.S.A.) by the above method.
To assess how SOCS2 which binds with p-Pyk2^Tyr402 in NK cells regulates Pyk2, the following experiment was carried out. With NK-92 cells cultured without or with IL-15 for 6, 12 or 24 hr using the same method in Example <2-2>, Western blot analysis was carried out using the same method in Example <2-1> with anti-SOCS2 antibody, anti-p-Pyk2^Tyr402 antibody, anti-Pyk2 antibody and anti-GAPDH antibody. […]

primary NK cells [8] = assay: Western blot of SOCS2 and p-Pyk2Tyr402 after IL-15 in primary NK cells; conditions: primary NK cells with or without IL-15
Method: as §1
NK cells cultured without or with IL-15, Western blot analysis was carried out using the same method in Example <2-1> with anti-SOCS2 antibody, anti-p-Pyk2^Tyr402 antibody, anti-Pyk2 antibody and anti-GAPDH antibody.

Pyk2 [9] = assay: Immunoprecipitation for ubiquitination of Pyk2 after IL-15 in NK-92 cells; conditions: NK-92 cells stimulated with IL-15, anti-Pyk2 immunoprecipitation
Method: To determine whether the decrease in p-Pyk2^Tyr402 by SOCS2 expression, confirmed in Example <13> resulted from the ubiquitin-mediated proteasomal degradation of p-Pyk2^Tyr402 by increased SOCS2 by IL-15, the following experiment was carried out. NK-92 cells stimulated with IL-15 as in Example <2-2> were lysed and the cell lysates were allowed to react with anti-Pyk2 antibody. The antigen-antibody complexes were precipitated by incubation at 4° C. for 1 day with G-protein-conjugated agarose. The immunoprecipitated complexes were washed with 1×PBS. Western blot analysis was performed by the same method in Example <2-1> using anti-ubiquitin antibody (Santa Cruz, U.S.A.), anti-SOCS2 antibody, anti-p-Pyk2^Tyr402 antibody, anti-Pyk2 antibody, and anti-GAPDH antibody.

SOCS2 = SOCS2 protein knockdown by siRNA, Western blot; conditions: primary NK cells transduced with siRNA, IL-15 stimulation 16 hr
Method: as §1
IL-15 is an essential cytokine for NK cell differentiation. With SOCS2 expression inhibited, the present inventors measured the NK cell differentiation by IL-15 stimulation. […] Concurrently, β-actin expression was also observed by using anti-β-actin primary antibody (Santa Cruz, U.S.A.) as a quantitative control.

primary NK cells [10] = assay: NK cell differentiation, CD-56 expression by FACS; conditions: primary NK cells transduced with siRNA, day 2, 3, 5, IL-15 stimulation
Method: Also, to determine whether the inhibition of SOCS2 expression affected the NK cell differentiation or not, primary NK cells were transduced with siRNA and CD-56 expression was measured by performing FACS on the cells at 2, 3, and 5th day.

Molecule: Oc1c2ccccc2c2c3c(cccc13)N=N2 [JNK inhibitor, SP600125]
- cytotoxicity against the K562 cancer cell line (NK-92 cells [1]): most significantly reduced

Molecule: CC(C)C[C@@H](C=O)NC(=O)[C@H](CC(C)C)NC(=O)[C@H](CC(C)C)NC(=O)OCc1ccccc1 [MG132] (Cbz-Leu-Leu-Leu-aldehyde)
- Flag band (Flag-Pyk2) in GST pull down (Pyk2 [2]): significantly large Flag band
- GST band and HA (ubiquitin) bands in anti-Flag immunoprecipitate (Pyk2 [3]): significantly large GST band and more HA bands

Molecule: IL-15: cytokine priming NK cell differentiation (Peprotech)
- SOCS2 expression (socs2 mRNA) (NK-92 cells [4]; NK-92 cells deprived of IL-15 24 hr, then 10 ng/mL IL-15, 4, 8, 12, 16 hr): SOCS2 expression increased in NK-92 cells
- SOCS2 expression (mRNA), specificity among cytokines (NK-92 cells [4]; deprived NK-92 cells, 30 ng/mL IL7, IL-12, IL-15, IL-18, IL-21 for 16 hr): SOCS2 expression was induced specifically by IL-15 stimulation
- mRNA expression of socs1, socs2 and socs3 (primary NK cells [5]): only socs2 mRNA expression among SOCS family members increased
- SOCS2 protein expression [6]: IL-15 stimulated SOCS2 expression was observed in both NK-92 cells and primary NK cells
- SOCS2 expression (NK-92 cells [7]): increased in an IL-15 stimulation time-dependent manner
- phosphorylation of tyrosine 402 in Pyk2 (NK-92 cells [7]): decreased
- expression of SOCS2 and phosphorylation of Pyk2 (primary NK cells [8]): induced the expression of SOCS2 and the decrease in the phosphorylation of Pyk2
- phosphorylation of Pyk2 (Pyk2 [9]): phosphorylation of Pyk2 decreased
- ubiquitination of Pyk2 (Pyk2 [9]): ubiquitination of Pyk2 increased

Molecule: SOCS2 siRNA: SOCS2 siRNA (Dharmacon, SEQ ID NO.12: 5′-CGACUACUAUGUUCAGAUG-3′) (listed as RNA, chemistry not given here)
- SOCS2 protein expression (SOCS2): SOCS2 protein expression was inhibited
- CD-56 expression (NK cell differentiation) (primary NK cells [10]): increased CD-56 expression similarly regardless of whether SOCS2 protein was expressed or not

Reference: patent US20120282646A1, “METHOD FOR ACTIVATING A NATURAL KILLER CELL BY ADJUSTING THE EXPRESSION OF THE SOCS2 GENE” (Korea Research Institute of Bioscience and Biotechnology, priority 2009, published 2012)
